Key:
[1] = target: recombinant R1a+R2A NMDA receptor expressed by population B cells (Homo sapiens, UniProt Q05586+Q12879); assay: Whole cell patch clamp electrophysiology on population B cells; assay type: cell-based
Text: The nature of the NMDA receptor expressed by population B cells has been extensively characterised by electrophysiological techniques, using whole cell patch clamp.

[2] = target: T1, recombinant R1a NMDA receptors (Homo sapiens, UniProt Q05586); assay: [3H]-L-689,560 radioligand binding to membranes of R1a transfected Ltk- cells (population A); details: 1 nM radioligand, 100 μg protein, 2 hours on ice, dexamethasone-induced cells
T1 construct: expressed in transfected cells
Procedure: Ltk^- cells were obtained from the Salk Institute for Biological Studies, San Diego, Calif. Cells were grown at 37° C., 5-8% CO2, in Modified Eagles Medium containing penicillin, streptomycin and 10% fetal calf serum. […] For co-transfection, Ltk^- cells were plated in dishes (approx. 2×10^5 cells/dish) and grown overnight. The transfection was performed by calcium phosphate precipitation using a kit (purchased from 5 Prime→3 Prime Products, Westchester, Pa.). Co-transfection was performed according to manufacturers' instructions, using 5 μg of each subunit DNA construct per 10 cm dish of cells. After 2 days in culture the cells were divided 1:8 into culture medium containing 1 mg/ml neomycin [Geneticin (obtainable from Gibco BRL, Paisley, Scotland, United Kingdom)]. After a further week the concentration was increased to 1.5 mg/ml, and then 2 mg/ml 1 week after that. Resistant clones of cells were isolated and subcloned using cloning cylinders. Subclones were analysed using radioligand binding: subclones were grown in 10 cm culture dishes, and when confluent changed into culture medium containing 1 μM dexamethasone (obtainable from Sigma Chemical Company, Poole, Dorset, United Kingdom). […] Rev. Pharmacol. […] Non-specific binding was determined in a parallel incubation containing 10 mM glycine. […]

[3] = target: T2, recombinant R1a+R2A receptors (Homo sapiens, UniProt Q05586); assay: [3H]-L-689,560 radioligand binding to membranes of R1a+R2A transfected Ltk- cells (population B)
T2 construct: expressed in transfected cells
Procedure: (§1) The nature of the recombinant R1a NMDA receptors prepared as described in Example 3 was addressed by characterization of the glycine site binding pharmacology, using the glycine site antagonist [^3 H]-L-689,560. For radioligand binding assays, cells which had been induced by culture in dexamethasone containing medium for 3-5 days were scraped off into 5 mM Tris-Acetate, pH 7.0 at 4° C. (buffer 1) and pelleted (20,000 rpm, Sorvall RC5C centrifuge). The cell pellet was resuspended in buffer 1, homogenised using an Ultra-Turrax homogeniser and then pelleted as above. This was repeated once more, and the cells then resuspended in 50 mM Tris-Acetate, pH 7.0 at 4° C. (buffer 2) at a protein concentration of 1 mg/ml. […] After 2 hours incubation on ice the membranes were harvested onto filters using a Brandel cell harvester, washed with cold buffer 2, and bound radioactivity determined by scintillation counting. Non-specific binding was determined in a parallel incubation containing 10 mM glycine. […]
(§2) For radioligand binding assays, cells which had been induced by culture in dexamethasone, MgCl2 and D-AP5 containing medium for 3-5 days were scraped off into 5 mM Tris-Acetate, pH 7.0 at 4° C. […] After 2 hours at 25° C. in the presence of 30 μM glycine and 30 μM L-glutamate the membranes were washed with buffer 1 and bound radioactivity determined by scintillation counting. […]

untransfected Ltk- cells = assay: Radioligand binding to untransfected Ltk- cells (control); parameters: species or system mouse
Procedure: as §1, §2

[4] = target: recombinant R1a+R2A NMDA receptors (Homo sapiens, UniProt Q05586+Q12879); assay: [3H]-dizocilpine radioligand binding to membranes of R1a+R2A transfected Ltk- cells (population B); details: 2 nM radioligand, 100 μg protein, 2 hours at 25° C., 30 μM glycine and 30 μM L-glutamate
Procedure: Ltk^- cells were obtained from the Salk Institute for Biological Studies, San Diego, Calif. Cells were grown at 37° C., 5-8% CO2, in Modified Eagles Medium containing penicillin, streptomycin and 10% fetal calf serum. […] For co-transfection, Ltk^- cells were plated in dishes (approx. 2×10^5 cells/dish) and grown overnight. The transfection was performed by calcium phosphate precipitation using a kit (purchased from 5 Prime→3 Prime Products, Westchester, Pa.). Co-transfection was performed according to manufacturers' instructions, using 5 μg of each subunit DNA construct per 10 cm dish of cells. After 2 days in culture the cells were divided 1:8 into culture medium containing 1 mg/ml neomycin [Geneticin (obtainable from Gibco BRL, Paisley, Scotland, United Kingdom)]. […] Subclones were analysed using radioligand binding: subclones were grown in 10 cm culture dishes, and when confluent changed into culture medium containing 1 μM dexamethasone (obtainable from Sigma Chemical Company, Poole, Dorset, United Kingdom). […]
For radioligand binding assays, cells which had been induced by culture in dexamethasone, MgCl2 and D-AP5 containing medium for 3-5 days were scraped off into 5 mM Tris-Acetate, pH 7.0 at 4° C. […] Non-specific binding was determined in a parallel incubation containing 100 μM dizocilpine.

For `O=C(O)[C@H]1C[C@@H](CP(=O)(O)O)CCN1` (relative stereo) [CGS 19,755], the “antagonism of the response to glutamate and glycine” value [1] was “antagonised”.

In the case of `O=C(Nc1ccccc1)N[C@@H]1C[C@@H](C(=O)O)Nc2cc(Cl)cc(Cl)c21` (relative stereo) [[^3 H]-L-689,560], the “level of [3H]-L-689,560 bound” value [2] is reported as “up to 3700 fmols/mg protein”, the “level of [3H]-L-689,560 bound” value [3] is reported as “up to 500 fmols/mg protein” and the “binding to untransfected Ltk- cells” value (untransfected Ltk- cells; [3H]-L-689,560 binding conditions, 1 nM) is reported as “No binding”.

`C[C@]12N[C@H](Cc3ccccc31)c1ccccc12` [[^3 H]-dizocilpine, dizocilpine] was tested, and the “level of [3H]-dizocilpine bound” value [4] was “up to 200 fmols/mg protein” and the “binding to untransfected Ltk- cells” value (untransfected Ltk- cells; [3H]-dizocilpine binding conditions, 2 nM) was “No binding”.
